Patent US10124033B2, “Peptides and methods of use” (BAXALTA INCORPORATED, priority 2014, dated 2018)
Residues, ends and D or L forms follow the SMILES beside them.

Tests used:
[1] = target: T1, human GAS6 (Homo sapiens, UniProt Q14393); assay: Biacore binding to anti-target GAS6
T1 sequence (Q14393 31-678): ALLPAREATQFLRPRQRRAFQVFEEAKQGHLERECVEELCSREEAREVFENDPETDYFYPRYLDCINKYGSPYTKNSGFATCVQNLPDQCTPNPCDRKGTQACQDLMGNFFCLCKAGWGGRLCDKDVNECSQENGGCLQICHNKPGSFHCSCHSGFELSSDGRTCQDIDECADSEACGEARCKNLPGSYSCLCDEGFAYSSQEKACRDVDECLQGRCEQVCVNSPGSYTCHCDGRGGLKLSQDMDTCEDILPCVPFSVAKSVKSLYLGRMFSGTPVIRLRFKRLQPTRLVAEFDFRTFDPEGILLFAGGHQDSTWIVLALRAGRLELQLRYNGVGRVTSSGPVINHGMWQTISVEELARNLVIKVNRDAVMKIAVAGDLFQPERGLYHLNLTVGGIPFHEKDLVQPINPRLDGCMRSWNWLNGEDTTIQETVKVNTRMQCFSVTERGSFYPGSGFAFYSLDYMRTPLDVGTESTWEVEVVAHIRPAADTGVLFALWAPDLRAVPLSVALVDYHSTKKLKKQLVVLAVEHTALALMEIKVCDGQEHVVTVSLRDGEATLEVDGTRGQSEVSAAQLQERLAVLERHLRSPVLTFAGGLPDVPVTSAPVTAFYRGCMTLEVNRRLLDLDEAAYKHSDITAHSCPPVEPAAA
Description: Protein S affinity also was determined via Biacore (Biacore 3000 or Biacore T200) using human full-length Protein S and human GAS6. Briefly, 1000 RU of Protein S or GAS6 were immobilized on a CMS chip. In order to probe the kinetics of Protein S binding peptides to Protein S, the peptides were injected at various concentrations in a HBS-buffer containing 3 mM CaCl2 and 1% DMSO to the flow cell and allowed to interact with the immobilized proteins on the sensor chip. The chip could be regenerated with 4 M MgCl2 in HBS-buffer. Sensorgrams were fitted to a Langmuir binding model for the determination of kon and koff and the calculation of KD. Peptides were tested on their specificity to Protein S with peptide binding studies on the anti-target GAS6.
Interactions with the anti-target GAS6 were measured via Biacore (surface plasmon resonance) (see Example 2). The maximum signal from the interaction of the peptides with human GAS6 was much lower than the signals obtained with Protein S as interaction partner. Kinetic analysis of the low GAS6 binding signals was error prone, and sensorgrams were reviewed visually to estimate anti-target binding. […] The affinity of JBS2572 for the anti-target was at least 10 times less (indeed, at least 150 times less) than the affinity of the peptides for human Protein S. The data provided by this example confirm that peptides described herein specifically bind Protein S.

[2] = target: T2, C4BP/PS complex (Homo sapiens, UniProt P07225); assay: LANCE IC50 assay on preformed C4BP/PS complex; type: binding
T2 sequence (P07225 41-676 limits assumed): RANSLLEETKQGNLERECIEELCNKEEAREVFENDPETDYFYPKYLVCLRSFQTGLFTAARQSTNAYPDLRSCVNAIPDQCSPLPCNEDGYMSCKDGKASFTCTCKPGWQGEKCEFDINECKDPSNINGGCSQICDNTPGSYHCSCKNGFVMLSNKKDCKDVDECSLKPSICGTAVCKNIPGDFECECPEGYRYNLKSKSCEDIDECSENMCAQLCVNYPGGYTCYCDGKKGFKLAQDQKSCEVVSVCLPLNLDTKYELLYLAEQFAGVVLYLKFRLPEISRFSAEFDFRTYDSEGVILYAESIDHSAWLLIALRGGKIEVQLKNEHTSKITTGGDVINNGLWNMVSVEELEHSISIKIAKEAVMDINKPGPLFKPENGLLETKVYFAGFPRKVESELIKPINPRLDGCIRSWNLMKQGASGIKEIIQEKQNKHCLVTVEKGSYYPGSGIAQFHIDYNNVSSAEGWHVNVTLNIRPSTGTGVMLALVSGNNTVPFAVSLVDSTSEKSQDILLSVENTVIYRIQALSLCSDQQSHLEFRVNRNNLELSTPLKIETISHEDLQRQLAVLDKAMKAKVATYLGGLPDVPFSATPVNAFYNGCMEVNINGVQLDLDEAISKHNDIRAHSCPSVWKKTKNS
Description: To investigate the effect of the peptides described herein on PS/C4BP complexes, a LANCE IC50 assay was established using methods similar to those described above. JBS2572 or JBS3216 was added to a preformed C4BP/PS complex. Changes in the complex concentration were followed by recording the TR-FRET signal. For both peptides, a time- and concentration-dependent dissociation of the C4BP/PS complex was observed. The IC50 of JBS3216 was 0.3 nM, and the IC50 of JBS2572 was 2 nM. The time-dependency of the complex reduction was similar for both peptides. After two hours of incubation in the presence of 100 nM JBS2572 or JBS3216, the C4BP/PS complex was reduced to 60% and 50%, respectively. In addition, binding of biotinylated JBS2572 to Protein S was inhibited by C4BP in the LANCE IC50 assay. Pull-down experiments where JBS2697 was coupled to streptavidin sepharose and incubated for one hour at room temperature with (a) Protein S (1.6 pmol) (b) C4BP (8.5 pmol) and (c) Protein S (1.6 pmol)+C4BP (8.5 pmol) supported the results from the modified LANCE IC50 assay.

CC(=O)N[C@H](C(=O)NCC(=O)N[C@@H](CC(C)C)C(=O)N[C@H](C(=O)N[C@@H](CO)C(=O)N[C@@H](C)C(=O)NCC(=O)N[C@@H](Cc1c[nH]c2ccccc12)C(=O)N[C@@H](Cc1ccc(O)cc1)C(=O)N[C@@H](CC(=O)O)C(=O)N[C@@H](Cc1ccc(O)cc1)C(=O)N[C@@H](CC(N)=O)C(=O)N[C@@H](Cc1ccccc1)C(=O)N[C@@H](CC(=O)O)C(=O)N[C@@H](Cc1c[nH]cn1)C(=O)N[C@@H](Cc1ccc(O)cc1)C(=O)N[C@@H](CCCNC(=N)N)C(=O)N[C@@H](CCC(=O)O)C(=O)N[C@@H](Cc1ccccc1)C(=O)N[C@H](C(N)=O)[C@@H](C)O)C(C)C)[C@@H](C)O [JBS2572] (Ac-TGLVSAGWYDYNFDHYREFT-NH2)
affinity for anti-target GAS6 relative to human Protein S (times less) [1]: at least 150 times | binding to GAS6 ([1]; 1 μM peptide, sensorgrams reviewed visually): no specific binding | IC50 ([2]; peptide added to preformed C4BP/PS complex, TR-FRET, read-out: IC50 of dissociation of preformed C4BP/PS complex): 2 nM | C4BP/PS complex reduced to ([2]; two hours of incubation, 100 nM peptide): 60%
